For one series, the target named is T1, β-Secretase (BACE1) (Homo sapiens, UniProt P56817).
T1 construct: purchased Sino Biological
The series can be described thus: β-Secretase inhibition assay (fluorogenic substrate IV). Type of series: biochemical. Particulars: for inhibition at 25 µM: read-out: BACE1 % Inhibition (at 25 µM) (±SEM). Here is the method: β-Secretase enzyme was reconstituted with 50 mM Tris (pH 7.5), 10% glycerol to yield concentration of 0.5 unit/µL. The enzyme stock solution was diluted with 100 mM sodium acetate buffer (pH 4.5) to 0.01 unit/µL. Thirty microliters of enzyme solution were added to each well that contained 20 µL of 5% DMSO of test compound. Then, fifty microliters of 50 µM β-secretase substrate IV from Calbiochem were added to the reaction plate. […] The assays were run in triplicate.

Series [1] in a line: Fe (II) chelation capacity assay (ferrozine). Here is the method:
An aqueous solution of 0.2 mM ferrous sulphate was prepared. Fifty microliters of this solution was added to 96 well plate, then 40 µL of 500 µM of test compounds in 50% DMSO were added to each well followed by DI water to adjust the volume to 150 µL. The mixtures were incubated at room temperature for 10 min. After incubation, 50 µL of 1 mM ferrozine (Sigma) was added to the reaction mixture. The absorbance was measured at 562 nm by using infinite 200 pro^TM, Tecan. EDTA was used as a positive control. Chelation capacity of each compounds were calculated. Compounds having chelating capacity over than 50% were evaluated for stoichiometric ratio of compound: metal.

Series [2] concerns the target T2, amyloid-β (1-42) peptide (Homo sapiens, UniProt P05067).
T2 construct: Stock solution of amyloid-β (1-42) peptide (Anaspec; 1384 µM in 1% NH4OH); purchased Anaspec
The series can be described thus: Amyloid β aggregation assay (ThT fluorescence). Type of series: biochemical. The note with it: Aβ(1-42), 48 h, read-out: Anti-Aβ aggregation % Inhibition (at 100 µM) (±SEM). As for the experimental part: Nine microliters amyloid-β solution was added to a greiner transparent 96 well plate. One microliter of each test compounds (1,000 µM in DMSO) were added to each well and mixed gently by tapping. The final concentrations of each compound were 100 µM in 10% DMSO. The reaction plate was incubated in dark at 37 °C for 48 h. After incubation, 200 µL of 5 µM ThT (Sigma) in 50 mM Tris buffer (pH 7.4) was added to each well. The fluorescence was measured at Ex = 446 nm and Em = 490 nm by using SpectraMax Gemini EM^TM [30]. The assays were run in triplicate.

For a further series, the system named is SH-SY5Y cells. The series can be described thus: Protection against Aβ1-42 induced neuronal cell death, MTT viability assay. In kind it is cell-based. The note with it: compound 1 μM. As for the experimental part:
The SH-SY5Y cells were cultured in a medium containing minimum essential medium (MEM): F-12 (1:1), 10% fetal bovine serum, MEM non-essential amino acids (0.5×), 0.5 mM sodium pyruvate and 100 units/ml of penicillin and 100 μg/mL of streptomycin. The cells were maintained under a humidified incubator with 5% CO2 in air at 37 °C.
SH-SY5Y cells were seeded in 96-well plates (2 × 10^4 cells per well) for 24 h. […] The aggregated β-amyloid was prepared by incubating in a medium without serum, penicillin and streptomycin at 37 °C for 72 h. The cells treated with aggregated β-amyloid were incubated for 24 h, 15 µL of MTT reagent (5 mg/mL MTT in serum free medium containing […]) was added to each well and incubated at 37 °C for 3 h. The medium was removed from each well. One hundred microlitres of 0.04 N HCl in isopropanol was added to each well to dissolve blue formazan crystals, which is the product of MTT catalyzed by mitochondrial dehydrogenase. The absorbance was measured at 570/630 nm using a Synergy^TM HT multi-detection microplate reader (Bio-Tek Instruments, Winooski, VT, USA).

Series [3] addresses T2, amyloid-β (1-42) peptide. The series can be described thus: Amyloid β aggregation assay (ThT fluorescence). Type of series: biochemical. The note with it: Aβ(1-42), read-out: Anti-Aβ aggregation IC50.
Series [4] in a line: Free radical scavenging assay (DPPH). As for the experimental part:
The test samples were prepared in 50% DMSO at 500 µM. Seventy microliters of DPPH solution (500 µM in methanol) was added to 96 well plate. The assay mixture was adjusted to 80 µL volume by methanol. After adjusting the volume, 20 µL of test compounds was added to each well. The reaction plate was incubated at room temperature in dark for 30 min. The absorbance was measured at 517 nm by using infinite 200 pro^TM, Tecan. Ascorbic acid was used as a positive control. Percent inhibition was calculated and compounds showing activity were evaluated for the IC50 values.

Entries after “also recorded” stand apart in the source; their conditions may differ.

T2 sequence (P05067 672-713 limits assumed): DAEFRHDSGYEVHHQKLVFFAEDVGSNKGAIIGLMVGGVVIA
T1 sequence (P56817 46-501): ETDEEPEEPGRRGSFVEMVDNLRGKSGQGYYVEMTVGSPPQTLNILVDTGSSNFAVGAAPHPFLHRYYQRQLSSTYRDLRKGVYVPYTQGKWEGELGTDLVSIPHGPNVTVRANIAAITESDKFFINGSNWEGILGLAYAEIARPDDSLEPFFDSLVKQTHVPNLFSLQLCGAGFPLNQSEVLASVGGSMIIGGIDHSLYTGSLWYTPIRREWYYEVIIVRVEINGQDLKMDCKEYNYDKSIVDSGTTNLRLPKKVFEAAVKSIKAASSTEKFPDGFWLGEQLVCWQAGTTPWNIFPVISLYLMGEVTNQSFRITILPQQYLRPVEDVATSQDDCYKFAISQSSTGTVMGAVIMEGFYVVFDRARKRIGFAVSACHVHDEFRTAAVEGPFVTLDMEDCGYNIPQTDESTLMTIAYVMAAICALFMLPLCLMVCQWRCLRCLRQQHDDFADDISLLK

The molecule `O=C(NCc1cn(C[C@@H]2Cc3c([nH]c4ccccc34)CN2)nn1)c1cc(O)cc(O)c1` [Compound 6f, (S)-3-((4-(((N-(3,5-Dihydroxy)benzoyl)azyl)methyl)-1H-1,2,3-triazol-1-yl)methyl)-2,3,4,9-tetrahydro-1H-pyrido[3,4-b]indole] gave a melting point of 180 to 182 °C. For the same molecule, on β-Secretase (BACE1), the inhibition at 25 µM came out at 21.3%. For the same molecule, in series [1], the “Fe chelation % Capacity (at 100 µM) (±SEM)” value is 5.80 (±0.04) %.
Turning to `N[C@@H](Cc1c[nH]c2ccccc12)Cn1cc(-c2ccc(Cl)c(Cl)c2)nn1` [Compound 12c, (S)-1-(4-(3,4-Dichlorophenyl)-1H-1,2,3-triazol-1-yl)-3-(1H-indol-3-yl)propan-2-amine], on β-Secretase (BACE1), the IC50 was 20.7 µM and the inhibition at 25 µM stood at 61.5%. The inhibition at 100 µM on amyloid-β (1-42) peptide [2] was > 50%. Besides, the “Protective effect against Aβ1-42 induced neuronal cell death (MTT viability)” value in the series with SH-SY5Y cells is listed as “significantly greater than those of the potent single target compound, BACE1 inhibitor IV; also recorded: decrease cell death to a greater extent than BACE1 inhibitor IV; also recorded: better than that of single targeted ligands”. Besides, the IC50 on amyloid-β (1-42) peptide [3] was determined as 83.2 µM.
With `N[C@@H](Cc1c[nH]c2ccccc12)Cn1cc(CNC(=O)c2cc(O)cc(O)c2)nn1` [Compound 12f, (S)-N-((1-(2-Amino-3-(1H-indol-3-yl)propyl)-1H-1,2,3-triazol-4-yl)methyl)-3,5-dihydroxybenzamide], the melting point fell in the range of 68 to 70 °C. Also, at β-Secretase (BACE1), the inhibition at 25 µM is 16.6%. Further, in series [1], the “Fe chelation % Capacity (at 100 µM) (±SEM)” value is listed as 13.06 (±0.16) %. Besides, the inhibition at 100 µM on amyloid-β (1-42) peptide [2] stood at 3.8%. Further, the “DPPH % Inhibition (at 100 µM) (±SEM)” value in series [4] is reported as 1.32 (±0.78) %.
`COc1cc(/C=C/C(=O)NCc2cn(C[C@@H](N)Cc3c[nH]c4ccccc34)nn2)ccc1O` [Compound 12g, (S,E)-N-((1-(2-Amino-3-(1H-indol-3-yl)propyl)-1H-1,2,3-triazol-4-yl)methyl)-3-(4-hydroxy-3-methoxyphenyl)acrylamide] had a melting point of 118 to 119 °C. The inhibition at 25 µM at β-Secretase (BACE1) came out at 16.2%. For the same molecule, the inhibition at 100 µM at amyloid-β (1-42) peptide [2] came out at 46.1%. Moreover, in series [4], inhibition was half-maximal at 130 µM (IC50) and the “DPPH % Inhibition (at 100 µM) (±SEM)” value is 40.79 (±0.31) %. Also, the IC50 on amyloid-β (1-42) peptide [3] turned out to be 110 µM.

(Values after PMC3618987, “From BACE1 Inhibitor to Multifunctionality of Tryptoline and Tryptamine Triazole Derivatives for Alzheimer’s Disease” (Molecules, 2012).)
